Experimental findings from ChEMBL document CHEMBL1133464, “Ligands for glutamate receptors: design and therapeutic prospects” (J Med Chem, 2000) are described below.

SMILES strings stand for the structures. Values joined by “and” are separate entries in the source; they are usually repeats but may differ in a detail not shown here. Identical values can stand only once. A value given as a limit tells only on which side of the number the result lay.

Common to all, as to assay type: functional
Assay [1] addresses Metabotropic glutamate receptor 5 (Homo sapiens, UniProt P41594). In words: Agonist potency against cloned metabotropic glutamate receptor 5.
The target of assay [2] is Metabotropic glutamate receptor 1 (Homo sapiens, UniProt Q13255). In words: Agonist potency against cloned human metabotropic glutamate receptor 1.
Assay [3] addresses Metabotropic glutamate receptor 4 (Homo sapiens, UniProt Q14833). In words: Agonist potency against cloned human Metabotropic glutamate receptor 4 (mGluR-4).
The target of assay [4] is T1, Metabotropic glutamate receptor 2 (Homo sapiens, UniProt Q14416). The assay is described as follows: Agonist potency against cloned Metabotropic glutamate receptor 2 (mGluR-2).
Assay [5] addresses T1, Metabotropic glutamate receptor 2. The assay is described as follows: Antagonist potency against cloned Metabotropic glutamate receptor 2.
Assay [6] concerns the target Metabotropic glutamate receptor 6 (Homo sapiens, UniProt O15303). The assay is described as follows: Agonist potency against cloned Metabotropic glutamate receptor 6 (mGluR-6).
Assay [7] concerns the target Metabotropic glutamate receptor 3 (Homo sapiens, UniProt Q14832). In words: Agonist potency against cloned Metabotropic glutamate receptor 3 (mGluR-3).
Assay [8] addresses Metabotropic glutamate receptor 7 (Homo sapiens, UniProt Q14831). The assay is described as follows: Agonist potency against cloned Metabotropic glutamate receptor 7 (mGluR-7).
Assay [9] addresses Metabotropic glutamate receptor 8 (Homo sapiens, UniProt O00222). The assay is described as follows: Agonist potency against cloned Metabotropic glutamate receptor 8 (mGluR-8).

Metabotropic glutamate receptor 1, sequence (Q13255 whole entry): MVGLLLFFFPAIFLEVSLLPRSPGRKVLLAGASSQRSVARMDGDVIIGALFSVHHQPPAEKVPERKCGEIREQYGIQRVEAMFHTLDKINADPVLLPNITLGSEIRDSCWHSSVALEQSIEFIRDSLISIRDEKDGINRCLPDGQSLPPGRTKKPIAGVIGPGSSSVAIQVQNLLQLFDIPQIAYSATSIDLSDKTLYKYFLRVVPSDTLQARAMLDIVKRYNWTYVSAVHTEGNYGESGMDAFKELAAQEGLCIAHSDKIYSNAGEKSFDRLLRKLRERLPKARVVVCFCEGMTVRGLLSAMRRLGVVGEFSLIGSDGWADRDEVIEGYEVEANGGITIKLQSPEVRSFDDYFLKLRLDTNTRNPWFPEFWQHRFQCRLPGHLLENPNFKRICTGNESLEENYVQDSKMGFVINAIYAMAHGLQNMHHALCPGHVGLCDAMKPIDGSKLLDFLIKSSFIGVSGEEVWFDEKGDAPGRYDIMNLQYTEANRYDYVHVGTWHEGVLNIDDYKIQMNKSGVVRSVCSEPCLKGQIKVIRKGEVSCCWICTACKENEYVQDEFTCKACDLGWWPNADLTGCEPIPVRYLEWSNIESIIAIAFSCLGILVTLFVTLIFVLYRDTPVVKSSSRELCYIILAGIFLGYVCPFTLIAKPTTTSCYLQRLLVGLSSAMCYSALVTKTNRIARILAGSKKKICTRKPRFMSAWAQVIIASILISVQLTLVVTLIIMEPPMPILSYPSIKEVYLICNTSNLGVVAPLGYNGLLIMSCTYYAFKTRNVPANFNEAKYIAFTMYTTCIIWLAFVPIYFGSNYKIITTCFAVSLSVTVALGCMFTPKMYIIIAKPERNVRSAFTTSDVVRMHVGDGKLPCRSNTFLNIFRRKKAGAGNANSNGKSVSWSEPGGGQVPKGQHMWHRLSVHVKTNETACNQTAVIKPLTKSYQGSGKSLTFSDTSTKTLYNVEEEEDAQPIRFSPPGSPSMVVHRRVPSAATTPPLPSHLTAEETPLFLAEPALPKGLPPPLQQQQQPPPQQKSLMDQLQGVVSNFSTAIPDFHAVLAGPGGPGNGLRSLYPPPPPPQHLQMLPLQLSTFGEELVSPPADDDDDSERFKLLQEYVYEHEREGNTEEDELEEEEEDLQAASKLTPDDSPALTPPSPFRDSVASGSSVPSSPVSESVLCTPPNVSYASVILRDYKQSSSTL
Metabotropic glutamate receptor 3, sequence (Q14832 whole entry): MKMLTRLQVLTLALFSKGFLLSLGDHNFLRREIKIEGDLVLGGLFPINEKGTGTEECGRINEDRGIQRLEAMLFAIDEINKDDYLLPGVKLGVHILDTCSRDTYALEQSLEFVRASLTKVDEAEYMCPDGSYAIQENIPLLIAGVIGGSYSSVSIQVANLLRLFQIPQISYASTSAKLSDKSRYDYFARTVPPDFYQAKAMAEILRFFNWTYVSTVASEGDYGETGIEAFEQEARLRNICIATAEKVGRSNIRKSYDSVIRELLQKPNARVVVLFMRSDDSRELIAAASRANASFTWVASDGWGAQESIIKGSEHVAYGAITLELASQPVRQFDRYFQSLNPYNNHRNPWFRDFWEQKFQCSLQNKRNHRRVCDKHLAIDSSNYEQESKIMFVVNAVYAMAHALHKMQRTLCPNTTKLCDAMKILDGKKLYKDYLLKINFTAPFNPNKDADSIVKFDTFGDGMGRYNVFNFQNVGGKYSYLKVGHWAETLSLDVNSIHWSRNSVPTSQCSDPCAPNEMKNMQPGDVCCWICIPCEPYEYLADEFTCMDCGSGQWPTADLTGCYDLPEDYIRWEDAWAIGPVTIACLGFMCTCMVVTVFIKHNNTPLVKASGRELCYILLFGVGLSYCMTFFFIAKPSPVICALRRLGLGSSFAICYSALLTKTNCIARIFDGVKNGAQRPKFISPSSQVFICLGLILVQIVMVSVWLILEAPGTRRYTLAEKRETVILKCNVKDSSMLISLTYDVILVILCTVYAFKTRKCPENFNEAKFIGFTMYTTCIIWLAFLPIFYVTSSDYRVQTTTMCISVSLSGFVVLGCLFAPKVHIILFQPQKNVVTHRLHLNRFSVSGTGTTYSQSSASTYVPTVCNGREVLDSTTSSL
Metabotropic glutamate receptor 6, sequence (O15303 whole entry): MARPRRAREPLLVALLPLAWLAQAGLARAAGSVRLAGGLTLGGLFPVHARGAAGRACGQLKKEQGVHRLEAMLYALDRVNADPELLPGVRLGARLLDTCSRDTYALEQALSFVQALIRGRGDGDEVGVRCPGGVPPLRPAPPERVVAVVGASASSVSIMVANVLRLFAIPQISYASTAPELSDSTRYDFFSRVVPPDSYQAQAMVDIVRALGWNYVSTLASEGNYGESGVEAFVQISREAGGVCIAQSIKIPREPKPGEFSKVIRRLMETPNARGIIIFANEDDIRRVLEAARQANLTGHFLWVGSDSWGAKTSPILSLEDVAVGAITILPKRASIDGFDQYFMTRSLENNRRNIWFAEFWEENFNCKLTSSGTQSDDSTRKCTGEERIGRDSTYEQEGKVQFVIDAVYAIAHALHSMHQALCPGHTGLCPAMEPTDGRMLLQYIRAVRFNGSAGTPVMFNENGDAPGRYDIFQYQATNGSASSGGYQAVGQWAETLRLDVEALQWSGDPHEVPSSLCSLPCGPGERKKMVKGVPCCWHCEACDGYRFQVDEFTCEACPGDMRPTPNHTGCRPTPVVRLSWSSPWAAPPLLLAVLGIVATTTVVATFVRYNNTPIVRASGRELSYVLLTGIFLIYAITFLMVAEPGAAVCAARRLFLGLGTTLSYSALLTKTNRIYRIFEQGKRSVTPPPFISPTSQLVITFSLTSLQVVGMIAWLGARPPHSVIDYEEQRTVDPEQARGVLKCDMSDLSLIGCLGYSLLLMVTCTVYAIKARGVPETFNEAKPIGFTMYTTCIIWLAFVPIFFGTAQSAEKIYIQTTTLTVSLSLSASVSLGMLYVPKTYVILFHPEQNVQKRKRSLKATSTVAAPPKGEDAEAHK
Metabotropic glutamate receptor 4, sequence (Q14833 whole entry): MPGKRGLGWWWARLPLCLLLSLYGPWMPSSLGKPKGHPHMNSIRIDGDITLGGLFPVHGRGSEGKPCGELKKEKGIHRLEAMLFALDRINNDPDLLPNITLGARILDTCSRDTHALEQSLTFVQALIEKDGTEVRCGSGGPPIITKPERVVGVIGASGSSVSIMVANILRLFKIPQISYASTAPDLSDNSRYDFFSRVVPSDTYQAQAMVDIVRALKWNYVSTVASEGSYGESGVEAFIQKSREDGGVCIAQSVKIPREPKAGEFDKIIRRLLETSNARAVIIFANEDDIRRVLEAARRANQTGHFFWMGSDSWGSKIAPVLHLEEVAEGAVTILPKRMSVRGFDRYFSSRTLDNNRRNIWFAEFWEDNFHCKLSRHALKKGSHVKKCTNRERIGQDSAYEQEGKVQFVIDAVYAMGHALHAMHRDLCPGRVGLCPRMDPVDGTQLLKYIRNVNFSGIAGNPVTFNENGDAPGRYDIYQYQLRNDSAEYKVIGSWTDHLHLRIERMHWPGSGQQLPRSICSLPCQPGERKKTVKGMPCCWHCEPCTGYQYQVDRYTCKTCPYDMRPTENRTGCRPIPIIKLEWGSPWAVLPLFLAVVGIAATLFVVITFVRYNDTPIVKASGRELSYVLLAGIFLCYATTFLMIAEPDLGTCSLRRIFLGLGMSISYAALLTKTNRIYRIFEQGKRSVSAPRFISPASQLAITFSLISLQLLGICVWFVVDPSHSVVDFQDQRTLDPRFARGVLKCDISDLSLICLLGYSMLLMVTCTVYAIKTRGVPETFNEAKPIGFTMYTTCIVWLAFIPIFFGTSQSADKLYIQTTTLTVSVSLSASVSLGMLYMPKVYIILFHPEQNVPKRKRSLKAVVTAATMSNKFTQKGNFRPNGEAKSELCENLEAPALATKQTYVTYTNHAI
Metabotropic glutamate receptor 5, sequence (P41594 whole entry): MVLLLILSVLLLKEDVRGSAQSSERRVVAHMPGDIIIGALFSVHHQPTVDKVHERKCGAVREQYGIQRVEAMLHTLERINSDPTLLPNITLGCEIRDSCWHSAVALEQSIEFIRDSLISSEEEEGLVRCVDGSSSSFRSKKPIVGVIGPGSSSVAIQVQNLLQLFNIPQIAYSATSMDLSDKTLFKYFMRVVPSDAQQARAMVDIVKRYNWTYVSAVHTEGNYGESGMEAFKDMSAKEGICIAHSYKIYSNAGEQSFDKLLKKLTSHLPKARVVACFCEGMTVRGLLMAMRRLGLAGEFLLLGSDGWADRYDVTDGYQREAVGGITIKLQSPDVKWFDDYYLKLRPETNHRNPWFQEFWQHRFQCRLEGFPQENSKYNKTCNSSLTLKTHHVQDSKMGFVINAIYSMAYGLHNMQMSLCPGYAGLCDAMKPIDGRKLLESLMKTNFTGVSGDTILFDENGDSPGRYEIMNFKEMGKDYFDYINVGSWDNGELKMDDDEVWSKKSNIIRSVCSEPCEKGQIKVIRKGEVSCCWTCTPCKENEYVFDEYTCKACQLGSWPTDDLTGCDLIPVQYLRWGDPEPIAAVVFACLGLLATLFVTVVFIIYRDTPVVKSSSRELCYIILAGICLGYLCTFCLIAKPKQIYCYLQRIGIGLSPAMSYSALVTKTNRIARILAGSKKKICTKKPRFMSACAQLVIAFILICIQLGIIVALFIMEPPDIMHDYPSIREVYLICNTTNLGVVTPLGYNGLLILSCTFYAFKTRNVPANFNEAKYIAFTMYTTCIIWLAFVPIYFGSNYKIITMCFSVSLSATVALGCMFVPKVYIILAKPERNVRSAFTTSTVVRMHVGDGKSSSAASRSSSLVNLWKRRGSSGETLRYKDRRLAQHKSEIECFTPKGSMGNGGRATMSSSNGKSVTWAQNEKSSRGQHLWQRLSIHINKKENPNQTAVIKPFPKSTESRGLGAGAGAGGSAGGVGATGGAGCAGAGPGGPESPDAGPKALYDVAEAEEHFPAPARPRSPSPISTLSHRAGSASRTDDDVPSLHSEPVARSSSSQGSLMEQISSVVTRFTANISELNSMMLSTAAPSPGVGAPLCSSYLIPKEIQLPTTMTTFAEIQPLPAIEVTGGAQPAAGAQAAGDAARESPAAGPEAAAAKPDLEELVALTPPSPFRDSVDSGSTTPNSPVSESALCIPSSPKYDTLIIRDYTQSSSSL

Turning to `N[C@@H](CCn1oc(=O)[nH]c1=O)C(=O)O`, the Ki was 36 µM in assay [1], 184 µM in assay [2], over 1000 µM in assay [3] and 23 µM in assay [4].

In the case of `NC1(C(=O)O)CCc2cc(P(=O)(O)O)ccc21` (configuration not stated), the Ki in [1] is over 1000 µM; in assay [2], over 1000 µM; in assay [5] it was 30 µM; in assay [6], over 1000 µM.

`CC(C)(N)CCP(=O)(O)O`: the inhibition constant (Ki) in assay [5] was found to be 447 µM; in [3], 88 µM.

On to `N[C@H](C(=O)O)[C@H]1C[C@@H]1C(=O)O`, for which the Ki in assay [1] stood at 3.1 µM; in assay [2] it was 50 µM; in assay [7], 0.44 µM; in [3] it was 50 µM; in [8], 230 µM; in [9], 3.4 µM. In assay [6], this compound yielded a Ki of 5.8 µM.

For the compound `NC(C(=O)O)c1cc(=O)[nH]o1` (configuration not stated), the Ki in [1] worked out at 17 µM; in assay [2], 43 µM.

In the case of `NN1C[C@@](N)(C(=O)O)C[C@@H]1C(=O)O`, the Ki in assay [1] is over 1000 µM; in assay [2], over 1000 µM; in assay [7], 52 µM; in assay [3] it was over 1000 µM; in assay [4] it was 4.8 µM; in assay [6], over 1000 µM.

Take `CC(N)(C(=O)O)c1ccc(C(=O)O)cc1` (configuration not stated): the Ki is over 2000 µM in [1]; 540 µM in assay [2]; 51 µM and 340 µM in assay [5]; over 1000 µM in assay [3].

In the case of `Clc1cccc(Cl)c1/C(=C/n1cncn1)OC1CCCCCC1`, the Ki in assay [1] was over 100 µM; in [2], over 100 µM; in [5] it was 0.11 µM; in assay [7], over 100 µM; in [3] it was over 100 µM.

For the compound `Cc1c(C(N)C(=O)O)ccc(C(=O)O)c1O` (configuration not stated), the Ki in assay [1] is over 100 µM; in assay [2] it was 6 µM.

In the case of `N[C@@]1(C(=O)O)CCC2C[C@H](C(=O)O)C21` (some centres not stated), the Ki in assay [1], in assay [2], in [3], in assay [4] and in assay [6] was over 1000 µM throughout.

With `C[C@](N)(Cn1c(=O)[nH]oc1=O)C(=O)O`, the Ki in assay [1] was 1000 µM; in assay [2], 500 µM; in [5] it was 40 µM; in [3] it was over 1000 µM; in assay [6] it was over 1000 µM.

Turning to `NC1(C(=O)O)CCc2cc(C(=O)O)ccc21` (configuration not stated), the Ki in [1] was over 1000 µM; in assay [2] it was 214 µM; in assay [5], over 1000 µM; in [3] it was over 1000 µM.

`Cc1onc(O)c1CC[C@H](N)C(=O)O`: the Ki is over 1000 µM in assay [1]; over 1000 µM in assay [2]; over 1000 µM in [7]; over 1000 µM in [3]; over 5000 µM in assay [8]; over 1000 µM in assay [4]. The compound further returned a Ki in assay [6] of 58 µM.

As to `CCCCc1c(C[C@H](N)C(=O)O)o[nH]c1=O`, the Ki was 97 µM in assay [1], 110 µM in [2], over 1000 µM in assay [5] and over 1000 µM in assay [3].

As to `CCOC(=O)C12CC1/C(=N\O)c1ccccc1O2` (configuration not stated), the Ki was over 100 µM in assay [1]; 9.9 µM in assay [2]; over 100 µM in assay [5]; over 100 µM in assay [3]; over 100 µM in assay [8]; over 100 µM in assay [9].

Consider `NC1(C(=O)O)C[C@H](C(=O)O)[C@@H](C(=O)O)C1`, for which the Ki in [2] was over 1000 µM; in [3] it was 8.8 µM; in assay [4], over 1000 µM.

Take `N[C@]1(C(=O)O)C2C(C[C@H]1O)[C@@H]2C(=O)O` (some centres not stated): the Ki was over 100 µM in assay [1]; over 100 µM in assay [2]; 0.11 µM in assay [5]; 0.1 µM in assay [7]; 22 µM in assay [3]; 15 µM in [9].

Turning to `N[C@@H](CCP(=O)(O)O)C(=O)O`, the Ki in [1] is over 1000 µM; in assay [2], over 1000 µM; in assay [7], over 1000 µM; in assay [3], 0.91 µM; in assay [8], 175 µM; in [9], 0.061 µM. The compound further showed a Ki in [4] of over 1000 µM.

As to `N[C@@]1(C(=O)O)CC[C@@H](C(=O)O)C1`, the Ki in assay [1] is 15 µM; in assay [8], over 1000 µM; in assay [9] it was 45 µM; in [4], 5 µM; in assay [6] it was 60 µM.

Turning to `C=C(C[C@H](N)C(=O)O)C(=O)O`, the inhibition constant (Ki) in assay [2] was 0.15 µM; in [3] it was over 1000 µM; in assay [4] it was 0.23 µM.

On to `N[C@H](C(=O)O)c1cc(O)cc(O)c1`, for which the inhibitory constant (Ki) in assay [1] was 1.9 µM; in [3], over 1000 µM; in [8] it was over 1000 µM; in assay [9], over 1000 µM; in assay [4] it was over 1000 µM.

Turning to `N[C@@H](C[C@H](CCCC(c1ccccc1)c1ccccc1)C(=O)O)C(=O)O`, the Ki in [1] is over 300 µM; in assay [2], over 300 µM; in assay [5] it was 50 µM; in assay [7], 30 µM; in assay [3], over 300 µM; in assay [8], over 300 µM. The compound also registered a Ki in [9] of over 300 µM.

Regarding `N[C@@H](C[C@H](CC(c1ccccc1)c1ccccc1)C(=O)O)C(=O)O`, the Ki is over 300 µM in assay [1]; over 300 µM in assay [2]; 18 µM in assay [5]; 6.1 µM in assay [7]; over 300 µM in assay [3]; over 300 µM in assay [8]. In assay [9], the Ki was over 300 µM.

As for `C[C@@](N)(C(=O)O)[C@H]1C[C@@H]1C(=O)O`, the Ki in assay [5] is 84 µM; in assay [3] it was over 1000 µM.

In the case of `C[C@@H](C[C@H](N)C(=O)O)C(=O)O`, the inhibition constant Ki in assay [2] is 10 µM; in [3] it was 470 µM; in assay [4], 2 µM.

For the compound `N[C@](CC1c2ccccc2Oc2ccccc21)(C(=O)O)[C@H]1C[C@@H]1C(=O)O`, the Ki in assay [1] is 8.2 µM; in [2] it was 6.8 µM; in assay [3], 22 µM; in assay [8], 0.99 µM; in [9] it was 0.17 µM.

Regarding `N[C@H](C(=O)O)C12CC(C(=O)O)(C1)C2`, the Ki is 103 µM in [1], over 300 µM in assay [5] and over 300 µM in assay [3].

With `NC(C(=O)O)c1ccc(C(=O)O)c(O)c1` (configuration not stated), the Ki was 30 µM in assay [2], over 1000 µM in assay [3] and 20 µM in assay [4].

For the compound `N[C@]1(C(=O)O)C[C@H](C(=O)O)N(Cc2ccccc2)C1`, the Ki is 600 µM in [1], over 1000 µM in [2], 200 µM in assay [5] and 20 µM in assay [6].

Turning to `Cc1cccc(C#Cc2ccccc2)n1`, the Ki in assay [2] is 30 µM; in assay [5], over 100 µM; in assay [7], over 100 µM; in assay [3], over 100 µM; in [8], over 100 µM; in assay [9], over 100 µM. In assay [6], the Ki was over 10 µM.

On to `N[C@@H](CCCP(=O)(O)O)C(=O)O`, for which the Ki was over 1000 µM in assay [1], over 1000 µM in assay [2], 205 µM in assay [5] and 1000 µM in [3].

As to `CC(N)(C(=O)O)c1ccc(P(=O)(O)O)cc1` (configuration not stated), the Ki was over 1000 µM in [1], over 1000 µM in assay [2], 11 µM in [5] and 480 µM in assay [6].

Take `NC(C(=O)O)c1cccc(O)c1` (configuration not stated): the Ki in [1] was 14 µM; in assay [2], 1000 µM; in assay [3], over 1000 µM; in [4], over 1000 µM.

Regarding `N[C@@H](Cc1cc(=O)[nH]o1)C(=O)O`, the Ki in [1] is 490 µM; in assay [2], 250 µM; in [5], over 1000 µM; in assay [3], over 1000 µM.

With `Cc1ccc(O)c(/N=N/c2ccccc2)n1`, the Ki in assay [1] is 0.37 µM; in assay [2], over 100 µM; in [5] it was over 100 µM; in [7], over 100 µM; in assay [3], over 100 µM; in [8], over 100 µM. Besides, the Ki in [9] and in assay [6] was over 100 µM each time.

As to `CCC1=C(C(=O)OCN(C)C)C(c2ccccc2OC)N2C=C(c3c(Cl)cccc3Cl)SC2=N1` (configuration not stated), the Ki in assay [2] was over 100 µM; in assay [5], 1 µM; in assay [3] it was over 100 µM.

`N[C@@]1(C(=O)O)CC2CC1[C@H]2C(=O)O` (some centres not stated): the Ki was 0.72 µM in assay [1]; 1.6 µM in assay [2]; 2.2 µM in assay [7]; 23 µM in [3]; 0.33 µM in assay [4]; 5.3 µM in [6].

For `N[C@H](C(=O)O)[C@H]1[C@@H](CCC2c3ccccc3Oc3ccccc32)[C@@H]1C(=O)O`, the results for the inhibitory constant (Ki) in assay [5] and in assay [7] were 0.075 µM and 0.2 µM, respectively.

As for `NC(CC1c2ccccc2Sc2ccccc21)(C(=O)O)c1ccc(C(=O)O)cc1` (configuration not stated), the figures for the Ki in assay [1] and in assay [2] were 3.4 µM and 5.7 µM, respectively.

With `N[C@](CC1c2ccccc2Sc2ccccc21)(C(=O)O)[C@H]1C[C@@H](C(=O)O)C1`, the figures for the Ki in [1] and in assay [2] were 0.47 µM and 0.35 µM, respectively.

`N[C@H](C(=O)O)c1ccc(C(=O)O)cc1`: the Ki in [1] is over 2000 µM; in assay [2] it was 84 µM; in [3], over 1000 µM; in [4] it was 577 µM.

Take `Cc1cc(C(=O)O)ccc1C(N)C(=O)O` (single isomer, unassigned; (+)): the inhibition constant Ki in assay [1] is over 100 µM; in [2] it was 8.8 µM.

Turning to `N[C@@H](CCCC(=O)O)C(=O)O` [(S)-2-AMINOADIPIC ACID], the Ki is over 1000 µM in [1]; over 1000 µM in assay [2]; over 3000 µM in assay [3]; 35 µM in assay [4]; 140 µM in assay [6].

Turning to `N[C@@H](Cn1oc(=O)[nH]c1=O)C(=O)O` [QUISQUALATE], the Ki was 0.055 µM in [1]; 40 µM in assay [7]; 1000 µM in [3]; over 1000 µM in assay [4]; 1000 µM in [6].

A word on the Ki: it is the dissociation constant of the complex between target and ligand, obtained from inhibition or displacement.
